# How the values were obtained:
# [1] = target: T1, Peptidyl-prolyl cis-trans isomerase NIMA-interacting 1 (Homo sapiens, UniProt Q13526); test: Inhibition of human N-terminal His6-tagged Pin1 PPIase activity expressed in Escherichia coli BL21 using Suc-Ala-Glu-cis-Pro-Phe-4-nitroanilide as substrate preincubated for 10 mins followed by substrate addition monitored for 90 secs by protease enzyme coupled based spectrophotometric analysis
# [2] = target: T1, Peptidyl-prolyl cis-trans isomerase NIMA-interacting 1; test: Inhibition of human N-terminal His6-tagged Pin1 PPIase activity expressed in Escherichia coli BL21 using Suc-Ala-Glu-cis-Pro-Phe-4-nitroanilide as substrate by beckman coulter-paradigm assay; details: TDE = time-dependent effect
# T1 sequence (Q13526 whole entry): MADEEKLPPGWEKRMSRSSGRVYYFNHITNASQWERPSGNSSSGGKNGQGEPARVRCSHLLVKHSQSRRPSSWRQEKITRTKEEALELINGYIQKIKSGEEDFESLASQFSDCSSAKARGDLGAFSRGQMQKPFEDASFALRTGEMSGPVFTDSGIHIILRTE
Structure (SMILES),IC50 [1] [µM],inhibition [2]
O=[N+]([O-])c1cnc(CCc2ccccc2)nc1Cl,13.9,
O=[N+]([O-])c1cnc(-c2ccccc2)nc1Oc1cccc2ocnc12,> 100,
O=C1C=CC(=O)N1c1cnc(Cl)nc1Nc1ccccc1,20.2,
O=[N+]([O-])c1cnc(-c2ccc3ccccc3c2)nc1Oc1cccc2ocnc12,> 100,
COc1ccccc1Oc1nc(Cl)ncc1[N+](=O)[O-],4.03,
O=[N+]([O-])c1cnc(Cl)cc1Oc1cccc2ocnc12,> 100,
Cc1cnc(Cl)nc1Oc1cccc2ocnc12,> 100,
O=[N+]([O-])c1cnc(Cl)nc1Oc1ccccc1,2.24,Tde
CC1=C(/C=C/C(C)=C/C=C/C(C)=C/C(=O)O)C(C)(C)CCC1 [TRETINOIN],0.82,
O=[N+]([O-])c1cnc(Cl)nc1NCCc1ccccc1,> 100,
O=C1CCC(=O)N1c1cnc(Cl)nc1Nc1ccccc1,> 100,
O=[N+]([O-])c1ccc(Cl)nc1Oc1cccc2ocnc12,> 100,
Clc1ncc(Cl)c(Oc2ccccc2)n1,> 100,
COc1cccc(Oc2nc(Cl)ncc2[N+](=O)[O-])c1,5.04,
Clc1ncc(-c2ncco2)c(Nc2ccccc2)n1,9.87,
O=[N+]([O-])c1cncnc1Oc1cccc2ocnc12,> 100,
O=C1C=CC(=O)c2c(O)cccc21 [JUGLONE],5.9,
O=[N+]([O-])c1cnc(OCCc2ccccc2)nc1Cl,7.27,
O=[N+]([O-])c1cnc(Cl)nc1OCc1ccccc1,8.33,Tde
N#Cc1ccccc1Oc1nc(Cl)ncc1[N+](=O)[O-],9.05,
O=[N+]([O-])c1cnc(Cl)nc1Oc1ccccc1F,2.52,
Cn1nc(-c2ccccc2)cc1Oc1nc(Cl)ncc1[N+](=O)[O-],2.17,

Structure (SMILES),IC50 [1] [µM],inhibition [2]
Clc1ncc(-c2nnco2)c(Nc2ccccc2)n1,> 100,
COC(=O)c1cnc(Cl)nc1Oc1cccc2ocnc12,> 100,
N#Cc1cnc(Cl)nc1Oc1ccccc1,4.36,
O=[N+]([O-])c1cnc(Cl)nc1OCCc1ccccc1,4.08,
O=[N+]([O-])c1cnc(Cl)nc1Oc1ccccn1,3.48,
Cc1cnc(Cl)nc1Oc1ccccc1,> 100,
O=[N+]([O-])c1cnc(Cl)nc1OC1CCCC1,> 100,
O=[N+]([O-])c1cnc(Cl)nc1Oc1cccc2ocnc12,1.68,Tde
O=[N+]([O-])c1cnc(Cl)nc1NC1CCCCC1,> 100,
O=[N+]([O-])c1cnc(Cl)nc1Oc1cccc2ccccc12,22.6,
CNc1nc(Cl)ncc1[N+](=O)[O-],> 100,
O=[N+]([O-])c1cnc(Cl)nc1OC1CCCCC1,> 100,
O=[N+]([O-])c1cnc(Cl)nc1Nc1ccccc1,6.66,
FC(F)(F)c1cnc(Cl)nc1Oc1cccc2ocnc12,> 100,
O=C(O)c1cnc(Cl)nc1Oc1cccc2ocnc12,18.9,
Nc1ccccc1Oc1nc(Cl)ncc1[N+](=O)[O-],33.5,
O=[N+]([O-])c1cnc(OCc2ccccc2)nc1Cl,7.28,Tde
O=[N+]([O-])c1cnc(Cl)nc1Oc1ccc2ccccc2c1,16.6,
FC(F)(F)c1cnc(Cl)nc1Oc1ccccc1,> 100,
O=[N+]([O-])c1cnc(Cl)nc1NC1CCCC1,> 100,
CS(=O)(=O)Nc1ccccc1Oc1nc(Cl)ncc1[N+](=O)[O-],5.2,
O=[N+]([O-])c1cnc(Cl)nc1Oc1ccc(-c2ccccc2)cc1,34,
